From patent US20080253996A1, “Use of Sdf-1 for the Treatment and/or Prevention of Neurological Diseases” (LABORATORIES SERONO SA, priority 2005, published 2008)

Legend:
[1] = test system: STZ-rats; test: STZ diabetic neuropathy, morphometric analysis of sciatic nerve and skin biopsy; assay type: in vivo, rat; conditions: day 40 post STZ; for density of intra-epidermal nerve fibers: vs vehicle
Method: Morphometric analysis was performed at the end of the study. The animals were anesthetized by IP injection of 60 mg/kg Imalgéne 500®. A 5 mm-segment of sciatic nerve was excised for histology. The tissue was fixed overnight with 4% glutaraldehyde (Sigma, L'Isle d'Abeau-Chesnes, France) solution in phosphate buffer solution (pH 7.4) and maintained in 30% sucrose at +4° C. until use. The nerve sample was fixed in 2% osmium tetroxide (Sigma) solution in phosphate buffer solution for 2 h, dehydrated in serial alcohol solution, and embedded in Epon. Embedded tissues were then placed at +70° C. during 3 days of polymerization. Transverse sections of 1.5 μm thickness were obtained using a microtome. They were stained with a 1% toluidine blue solution (Sigma) for 2 min, dehydrated and mounted in Eukitt.
Analysis was performed on the entire surface of the nerve section using a semi-automated digital image analysis software (Biocom, France). Once extraneous objects had been eliminated, the software reported the total number of myelinated fibers. The number of degenerated fibers was then counted manually by an operator. Myelinated fibers without axons, redundant myelin and fibers showing sheaths with too large thickness in respect to their axonal diameter were considered as fibers undergoing processes of degeneration. The number of non-degenerated fibers was obtained by subtraction of the number of degenerated fibers.
Morphological analysis was performed only on fibers considered as non-degenerated. For each fiber, the axonal and myelin sizes were reported in surface area (μm^2). These two parameters were used to calculate the equivalent area of g-ratio (axonal diameter/fiber diameter) of each fiber (i.e., [A/(A+M)]^0.5, A=axonal area, M=myelin area), indicative of the relative myelin sheath thickness.
In addition, a 5-10 mm diameter area of skin was punch-biopsied from the hindpaw. Skin samples were immediately fixed overnight in paraformaldehyde at 4° C., incubated (overnight) in 30% sucrose in 0.1 M PBS for cryoprotection, embedded in OCT and frozen at −80° C. until cryocut.
50 μm-thick cryosections were then cut vertical to the skin surface with a cryostat. Free-floating sections were incubated for 7 days in a bath of rabbit anti-protein gene product 9.5 (1:10000; Ultraclone, Isle of Man, UK) at 4° C. The sections were then processed to reveal immunoreactivity according to the ABC peroxidase method. Briefly, they were incubated in for 1 h with biotinylated […] antibody (1:200), then 30 min in the avidin biotinylated complex at room temperature. Peroxidase activity was visualized using DAB system. Sections were then counterstained with eosin or hematoxylin. Sections were dehydrated, clear with bioclear and mounted on eukitt. Photos of microscope fields were performed at 20× power magnification view using Nikon digital camera at focal distance of 12.9 mm. The number of intra-epidermal nerves on 3 microscope fields of […] (544×408 μm) each was counted by the experimenter on computer screen.
Global analysis of the data was performed using one factor or repeated measure analysis of variance (ANOVA) and one-way ANOVA. When ANOVA indicated significant difference, Fisher Protected Least Significant Difference was used as post-hoc test to compare experimental groups with the group of diabetic rats treated with the vehicle. The level of significance was set at p≦0.05. Results are expressed as mean ±standard error of the mean (s.e.m.).

[2] = test system: sciatic nerve crush mice; test: Neuropathy induced by sciatic nerve crush, electrophysiological recording (CMAP); assay type: in vivo, mouse; conditions: for increase in the CMAP amplitude as compared to untreated mice: SDF-1α 30 μg/kg or μ/kg, IL-6 30 μ/kg s.c., significant at 15 dpl and 22dpl
Method: […] 8 week-old females C57bl/6 RJ mice (Elevage Janvier, Le Genest-St-Isle, France) were used. They were divided into 6 groups (n=6): • (a) nerve crush/Vehicle (Saline/0.02% BSA); • (b) nerve crush/SDF-1α (3 μg/kg); • (c) nerve crush/SDF-1α (10 μg/kg); • (d) nerve crush/SDF-1α (30 μg/kg); • (e) nerve crush/SDF-1α (100 μg/kg); • (f) nerve crush/IL-6 (30 μg/kg).
The animals were anaesthetized by inhalation of 3% Isoflurane (Baxter). The right sciatic nerve was surgically exposed at mid thigh level and crushed at 5 mm proximal to the trifurcation of the sciatic nerve. The nerve was crushed twice for 30s with a haemostatic forceps (width 1.5 mm; Koenig; Strasbourg; France) with a 90-degree rotation between each crush.
Electromyographical (EMG) testing was performed once before the surgery day and each week during 3 weeks following the operation.
The day of nerve crush surgery was considered as dpl 0 (dpl=day post lesion). No test was performed during the 4 days following the crush.
From the day of nerve injury to the end of the study, SDF-1α, IL-6 or Vehicle were administered daily by subcutaneous injections (s.c.) route, 5 days per week.
Electrophysiological recordings were performed using a Neuromatic 2000M electromyograph (EMG) (Dantec, Les Ulis, France). Mice were anaesthetized by inhalation of 3% Isofluran® (Baxter). The normal body temperature was maintained using a heated operating table (Minerve, Esternay, France).
Compound muscle action potential (CMAP) was measured in the gastrocnemius muscle after a single 0.2 ms stimulation of the sciatic nerve at a supramaximal intensity (12.8 mA). The amplitude (mV) and the latency (ms) of the action potential were measured on the operated leg. The measures was also registered on the contralateral (uncrushed) leg of Vehicle treated animals (Baseline). The amplitude is indicative of the number of active motor units, while the distal latency indirectly reflects motor nerve conduction and neuromuscular transmission velocities, which depends in part on the degree of myelination.
Global analysis of the data was performed using one-way ANOVA. Dunnett's test was used further, and data were compared to the “vehicle” control. The level of significance was set at a: p<0.001; b or **: p<0.01; c or *: p<0.05; d: p<0.1. The results were expressed as mean ±standard error of the mean (s.e.m.).
The sciatic nerve crush model described in Example 4 above was carried out to test SDF-1α variant as defined in SEQ ID NO: 4 and the mice were divided into the following 2 groups (n=6):
The SDF-1α variant used in this example and encoded by SEQ ID NO: 4 was expressed with an additional N terminal Methionine. The CMAP duration (time needed for a depolarization and a repolarization session) was also recorded.
The sciatic nerve crush model described in Example 4 above was carried out to test Met-SDF-1α (as defined in SEQ ID NO: 7) and the mice were divided into the following 2 groups (n=6):
(b) nerve crush/Met-SDF-1α variant at 100, 30, and 10 μg/kg s.c.

[3] = test system: leukocytes recruited in the peritoneal cavity; test: In vivo model of peritoneal cell recruitment; design: species or system mouse; conditions: 4 μg i.p. in Balb/C mice, 4 hours post injection
Method: 8-12 week old, female Balb/C mice (Janvier, France) were injected intra peritoneally (i.p.) with 200 μl NaCl (0.9%, LPS free) or chemokine 4 μg (WT SDF-1α or SDF-1α variant according to SEQ ID NO:4 diluted in 200 μl NaCl (0.9%, LPS free). […] of WT or mutant SDF-1α, mice were sacrificed by CO2 asphyxiation, the peritoneal cavity was washed with 3×5 ml ice cold PBS and the total lavage was pooled for individual mice. Total cells collected were counted by haemocytometer (Neubauer, Germany).

[4] = SDF-1α 10, 30, 100 μg/kg, IL-6 10 μg/kg s.c.
[5] = SDF-1α especially 10 or 30 μg/kg, IL-6 10 μg/kg s.c.

IL-6: reference (positive) control compound in nerve crush and STZ models [reference compound]
number of degenerated fibers in the sciatic nerve [1, 4]: significantly reduced population of degenerated fibers | density of intra-epidermal nerve fibers [1, 4]: markedly prevented | g-ratio (relative myelin thickness) vs STZ/Vehicle group [1, 5]: significant reduction | increase in the CMAP amplitude as compared to untreated mice [2]: about 1.5 times

SDF-1α: Human recombinant chemokine SDF-1α (SEQ ID NO: 1), produced in house, expressed in E. Coli cells
g-ratio (relative myelin thickness) vs STZ/Vehicle group ([1]; 100 μg/kg s.c.): did not reach the significance level | number of degenerated fibers in the sciatic nerve [1, 4]: reduction of degenerated fibers population | density of intra-epidermal nerve fibers [1, 4]: significantly greater density | g-ratio (relative myelin thickness) vs STZ/Vehicle group [1, 5]: significantly reduced | number of degenerated fibers in the sciatic nerve ([1]; lowest dose 10 μg/kg s.c. (best effect)): reached the significance level | potency on CMAP latency compared with IL-6 (30 μg/kg) ([2]; 30 μg/kg s.c.): more potent than IL-6 | increase in the CMAP amplitude as compared to untreated mice [2]: about 1.5 times | CMAP latency vs vehicle treated mice ([2]; day 7, SDF-1α 30 μg/kg and 100 μg/kg, IL-6 30 μg/kg s.c.): significantly reduced | CMAP latency vs vehicle treated mice ([2]; dpl 15 and 22, 30 μg/kg and 100 μg/kg s.c.): significant effect | leukocyte recruitment in the peritoneal cavity [3]: recruits leukocytes
